Assay results published in patent US7265155B2 (NBS Pharmaceuticals, Inc., priority 1996, dated 2007).
Where “and” joins values, the source holds several entries; their conditions need not be identical. Equal entries are not always repeated. Entries after “also recorded” stand apart in the source; their conditions may differ. Where two headings read alike, the source gives them in different places. Marks after values point to notes of the source that are not given here.

Assays:
[1] = in vivo; cited from earlier work
Frings mouse = assay: Rotarod motor impairment (toxicity) in the Frings mouse; format: in vivo
Description: (§1) The average seizure score can be calculated for each group of mice employed in the dose-response study. At each dose, mice are also tested on a rotarod for testing of motor impairment (toxicity). Testing for motor impairment on the rotarod involves placing a mouse for a three-minute trial period on a one-inch diameter rod rotating at six revolutions per minute. If the mouse falls off of the rotating rod three times within the three-minute time period, it is considered a toxic response.

[2] = as above; format: in vivo; conditions: Frings, mouse, in vivo
Description: as §1

amygdala-kindled rat = assay: Antiepileptogenic effect during kindling in the amygdala-kindled rat; format: in vivo; conditions: daily 500 mg/kg p.o.
Description: In these studies, groups of adult, male Sprague-Dawley rats weighing at least 230 gr were implanted with a teflon-coated bipolar electrode sterotaxically placed in the anterior basolateral nucleus of the amygdala under ketarine and xylazine anesthesia. The electrode was implanted at the following coordinates with Bregma as zero: AP-2.2 mm, ML-4.7 mm, DV-8.7 mm. Chronic treatment with vehicle (0.5% carboxymethylcellulose, p.o.) or isovaleramide (500 mg/kg, p.o., […] of body weight) was initiated after a seven-day postoperative recovery period. […] After 11 treatment days, all animals were permitted a 7-day drug- and stimulus-free period. […] Seizure score and afterdischarge duration were recorded after each stimulation. Seizure score was classified according to Racine scale (1972): stage 0, no abnormal behavior; stage 1, mouth or facial movements; stage 2, mouth or facial movements and head nodding; stage 3, stage 2 and forelimb clonus; stage 4, stage 3 and rearing; stage 5, stage 4 and falling. A score of 2-3 represents a focal seizure while a score of 4-5 represents secondarily generalized seizures. Afterdischarge duration was the total duration of the amygdala electroencephalogram spikes with an amplitude of at least twice the amplitude of the prestimulus recording and a frequency greater than 1/sec. […]

CC(C)CC(N)=O [Isovaleramide, isovaleramide]
anxiolytic properties [1]: clinically useful anxiolytic properties | Number Showing Toxicity of Eight Mice Tested (Frings mouse; 75 mg/kg i.p., 15 minutes): 0 | Number Showing Toxicity of Eight Mice Tested (Frings mouse; 112.5 mg/kg i.p., 15 minutes): 0 | Number Showing Toxicity of Eight Mice Tested (Frings mouse; 150 mg/kg i.p., 15 minutes): 0 | Number Showing Toxicity of Eight Mice Tested (Frings mouse; 300 mg/kg i.p., 15 minutes): 1/8 and 1 | Number Showing Toxicity of Eight Mice Tested (Frings mouse; 300 mg/kg oral, tested at 15 minutes): 1 | Number Showing Toxicity of Eight Mice Tested (Frings mouse; 600 mg/kg i.p., 15 minutes): 4/8 and 4 | Number Showing Toxicity of Eight Mice Tested (Frings mouse; 600 mg/kg oral, tested at 15 minutes): 1 | Number Showing Toxicity of Eight Mice Tested (Frings mouse; 1000 mg/kg i.p., 15 minutes): 8/8 and 8 | Number Showing Toxicity of Eight Mice Tested (Frings mouse; 1000 mg/kg oral, tested at 15 minutes): 5 | Number Showing Toxicity of Eight Mice Tested (Frings mouse; 1500 mg/kg oral, tested at 15 minutes): 5 | Number Showing Toxicity of Eight Mice Tested (Frings mouse; 2000 mg/kg oral, tested at 15 minutes, only seven mice tested): 7^d | rotarod performance in the Frings mouse (Frings mouse; doses up to 512 mg/kg i.p. 15 minutes before test): did not affect performance significantly | doses at which behavioral toxicity (inability to maintain balance on the rotarod) was displayed (Frings mouse; i.p.): > 300 mg/kg | doses at which no notable toxicity was observed (Frings mouse; i.p.): less than 300 mg/kg | TD50 at 15 min ([2]; ip, 15 minutes, read-out: TD50 for rotarod impairment): 531 mg/kg | TD50 at 15 min ([2]; oral, read-out: TD50): 1010 mg/kg | seizure development over time (amygdala-kindled rat): eventually developed full stage 5 seizures | increases in seizure score and afterdischarge duration during electrical kindling (amygdala-kindled rat; 30-minute pretreatment): delayed the increases in both seizure score and afterdischarge duration; also recorded: elicited a delay in the rate of increase in both seizure score and afterdischarge duration
